Reference: patent publication US10028992B2, “Methods of treating muscular dystrophy” (BOARD OF REGENTS OF THE NEVADA SYSTEM OF HIGHER EDUCATION …, priority 2012, dated 2018)
Where two headings read alike, the source gives them in different places.

System: α7 integrin promoter
Assay: muscle cell-based assay: α7βgal+/− myoblasts/myotubes, LacZ reporter, β-galactosidase cleavage of FDG
Set-up: species or system mouse; Results in α7+/− β-galactosidase assay: scale not given here
Conditions: for Results in a α7+/− β-galactosidase assay, Myotubes, 0.5 uM: compound at 0.5 uM; for Results in a α7+/− β-galactosidase assay, Myotubes, 1 uM: compound at 1 uM; for Results in a α7+/− β-galactosidase assay, Myotubes, 5 uM: compound at 5 uM; for Results in a α7+/− β-galactosidase assay, Myotubes, 10 uM: compound at 10 uM; for Results in a α7+/− β-galactosidase assay, Myotubes, 20 uM: compound at 20 uM; for Results in a α7+/− β-galactosidase assay, Myotubes, 40 uM: compound at 40 uM; for AC50: log of AC50, given with negative sign, unit of AC50 not given, read-out: Fit Log AC50 (converted); for Fit Curve Class: key not given; for Results in α7+/− β-galactosidase assay / Result in α7+/− β-galactosidase assay: Myoblasts
Protocol: An α7 integrin null mouse was produced in which exon 1 of the gene encoding the α7 integrin was replaced by the LacZ reporter. In these mice, all the transcriptional regulatory elements of the α7 integrin promoter were retained, allowing β-galactosidase to report expression of 7 integrin. A primary myoblast cell line (designated α7βgal^+/−) isolated from 10 day old α7^+/− pups were analyzed for the ability of β-galactosidase to report α7 integrin expression. α7βgal^+/− myoblasts were differentiated and subjected to X-gal staining and western analysis (FIGS. 1A and 1B).
The activity of the α7 integrin promoter was measured by β-galactosidase cleavage of the non-fluorescent compound fluorescein di-β-D-galactopyranoside (FDG) to fluorescein. This assay was used to screen compound libraries to identify molecules that up-regulate α7 integrin expression in muscle.
Also evaluated was the effect of various isoforms of laminin and the ligand for α7β1 integrin on integrin expression. Positive hits were subjected to dose-response analysis, western analysis and a myostatin counterscreen (a negative regulator of muscle growth).

[1] = Table 12, fitted activity at zero concentration
[2] = Table 12 Compound data, concentration-response curve fit

SMILES | Results in a α7+/− β-galactosidase assay, Myotubes, 0.5 uM | Results in a α7+/− β-galactosidase assay, Myotubes, 1 uM | Results in a α7+/− β-galactosidase assay, Myotubes, 5 uM | Results in a α7+/− β-galactosidase assay, Myotubes, 10 uM | Results in a α7+/− β-galactosidase assay, Myotubes, 20 uM | Results in a α7+/− β-galactosidase assay, Myotubes, 40 uM | Results in α7+/− β-galactosidase assay (0.5 uM) | Results in α7+/− β-galactosidase assay (1 uM) | Results in α7+/− β-galactosidase assay (5 uM) | Results in α7+/− β-galactosidase assay (10 uM) | Results in α7+/− β-galactosidase assay (20 uM) | Results in α7+/− β-galactosidase assay (40 uM) | further results
O=C(NCCc1ccccc1)C1CCC(=O)N1C1CCCC1 (stereo not shown) [drawing 351] | 0.05429 | −0.1351 | 0.08688 | 0.1206 | −0.1635 | −0.1123 | – | – | – | – | – | – | –
COC(=O)c1ccccc1NC(=O)c1cc[n+]([O-])cc1 [Compound 100] | – | – | – | – | – | – | – | – | – | – | – | – | AC50 (Mus musculus, Table 12): 3.98 µM; Fit HillSlope (Table 12, curve fit): 1.01; Fit Zero Activity [%] [1]: −31.5116%; Fit Curve Class (Table 12): 2.1; Score [2]: 43
O=C(Nc1ccccc1OC(=O)c1ccc(Cl)cc1)c1ccc(Cl)cc1 [drawing 609] | – | – | – | – | – | – | 0.03104 | 0.01493 | −0.04769 | −0.1879 | 0.6323 | −0.3765 | –
Cc1ccc(N2C(=O)C3NN=C(C(=O)OCc4ccccc4)C3C2=O)cc1 (stereo not shown) [drawing 600] | – | – | – | – | – | – | 0.05483 | −0.02931 | −0.09981 | −0.01836 | 0.1359 | −0.03893 | –
Cc1nnc(SCC(=O)c2ccc(Br)cc2)s1 [drawing 709] | – | – | – | – | – | – | – | – | – | – | – | – | Result in α7+/− β-galactosidase assay (0.5 uM): 0.3789; Result in α7+/− β-galactosidase assay (1 uM): 0.2434; Result in α7+/− β-galactosidase assay (5 uM): 0.08324; Result in α7+/− β-galactosidase assay (10 uM): 0.1001; Result in α7+/− β-galactosidase assay (20 uM): 0.111; Result in α7+/− β-galactosidase assay (40 uM): −0.07647
CCC(C)n1nc(O)cc1N (stereo not shown) [drawing 433] | 0.1351 | −0.05991 | −0.1063 | −0.1016 | −0.1631 | −0.144 | – | – | – | – | – | – | –
COC(=O)c1ccccc1CC(=O)CSc1nc(O)c(-c2ccccc2)c(O)n1 [drawing 458] | −0.05289 | −0.1068 | −0.1993 | 0.1104 | −0.1578 | 0.03611 | – | – | – | – | – | – | –
Cn1c(SCC(=O)c2ccccc2)nc2c(c1=O)C1(CCCC1)Cc1ccccc1-2 [Compound ID# 1001, 3-methyl-2-[(2-oxo-2-phenylethyl)thio]-3H-spiro[benzo[h]quinazoline-5,1″-cyclopentan]-4(6H)-one] | – | – | – | – | – | – | – | – | – | – | – | – | Optimal Concentration (enhancement of α7 integrin expression in muscle cells): 12.5 μm; EC50 (enhancement of α7 integrin expression in muscle cells, read-out: EC50): 3 µM; α7 integrin expression in muscle (screen of DIVERSet library): increased
CCOC(=O)C1CCCN(C(=O)CNS(=O)(=O)c2ccc(Br)s2)C1 (stereo not shown) [Compound 33] | – | – | – | – | – | – | – | – | – | – | – | – | AC50 (Mus musculus, Table 12): 2 µM; Emax (Mus musculus, read-out: Max Response [%]): 31.1%; Fit HillSlope (Table 12, curve fit): 1.1; Fit Zero Activity [%] [1]: −50.1655%; Fit Curve Class (Table 12): 1.1; Score [2]: 82
c1ccc(CN2CCCC3(CCCN(Cc4nc(CC5CC5)no4)C3)C2)cc1 (stereo not shown) [Compound 200] | – | – | – | – | – | – | – | – | – | – | – | – | EC50 (Mus musculus, given as log AC50 (negative values), read-out: Fit LogAC50 (converted)): 8.91 µM; Score (Table 12 compound data): 42; Fit Curve Class (curve class number): 2.1; Fit HillSlope (curve fit): 1.4781; Fit Zero Activity [%] (curve fit, activity at zero concentration): −42.0662%
Cc1cccc(NC(=O)CN(C)C(=O)c2ccc(-c3ccc(Cl)cc3)o2)c1 [drawing 435] | −0.06415 | −0.0743 | −0.09532 | −0.1682 | −0.3693 | −0.5402 | – | – | – | – | – | – | –
O=S(=O)(N/C(=N/C1CCCCC1)c1ccccc1F)c1ccccc1 [drawing 542] | – | – | – | – | – | – | 0.02381 | 0.1877 | 0.03277 | 0.0429 | 0.04651 | 0.01846 | –
CCCC1C(c2cc(OC)c(OC)c(OC)c2)=Nc2c1c(=O)[nH]c(=O)n2Cc1ccccc1 (stereo not shown) [drawing 677] | – | – | – | – | – | – | 0.221 | 0.193 | −0.1488 | 0.1807 | −0.03424 | −0.4586 | –
